Patent US20090099195A1 (ASTRAZENECA AB, priority 2007, published 2009)

How the values were obtained:
[1] = target: T1, hP2X3 (human Purinergic P2X receptors subtype 3), clone A (Homo sapiens, UniProt P56373); test: hP2X3 FLIPR calcium (Fluo-4) antagonist assay, clone A; conditions: Human P2X3 FLIPR Clone A Mean IC50 (nM), RLE cells expressing hP2X3 clone A (AB016608); agonist 500 nM α,β-methylene-ATP
T1 sequence (P56373 1-397): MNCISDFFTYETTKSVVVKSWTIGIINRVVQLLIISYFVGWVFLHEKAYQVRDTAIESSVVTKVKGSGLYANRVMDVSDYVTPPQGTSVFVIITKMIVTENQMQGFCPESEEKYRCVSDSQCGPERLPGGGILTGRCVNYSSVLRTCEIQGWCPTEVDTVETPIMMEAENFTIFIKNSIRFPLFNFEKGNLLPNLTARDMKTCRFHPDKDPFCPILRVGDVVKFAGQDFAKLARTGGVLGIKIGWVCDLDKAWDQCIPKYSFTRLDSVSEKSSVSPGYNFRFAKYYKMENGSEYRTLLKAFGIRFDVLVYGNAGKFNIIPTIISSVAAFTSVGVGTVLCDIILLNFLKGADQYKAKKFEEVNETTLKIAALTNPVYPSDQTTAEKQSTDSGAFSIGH
Procedure: The assay used a calcium indicator dye (Fluo-4) that emits fluorescence, the intensity of which is related to the concentration of calcium that entered the cell when P2X3 was activated and the channel opened. Activation of hP2X3 or rat P2X3 and rat P2X2/3 (from the coexpression of rat P2X3 and rat P2×2) is elicited the by P2X3 agonist α,β methylene-ATP (Sigma M6517), and the resulting fluorescence is measured with a FLIPR II™ instrument (Molecular Devices). Compounds are tested for their ability to inhibit the agonist-induced fluorescent signal.
For the rat P2X2/3 HEK-TREX cells, induction of the rat P2X3 expression is used to generate the rat P2X2/3 channels in HEK-TREX cells and performed by addition of 1 μg/mL tetracycline (Invitrogen) 24 h prior to compounds testing to the HEK-TREX expressing the rat P2X2 constitutively. On the day of the experiment, the cells and test compounds are prepared as follows. […] After preparing the compounds, the medium is removed from the cell plates by inversion. A loading solution of 30 μL assay buffer containing 4 μM of the calcium indicator dye FLUO-4 AM (Molecular Probes F14202) is added to each well using a Multidrop (Labsystems). […] The incubation is terminated by washing the cells four times in assay buffer using a Skatron Embla (Molecular Devices), and 25 μL of assay buffer was left in each well. Cell plates are then transferred to the FLIPR. Experiments are initiated by measuring a baseline fluorescence reading for 10 seconds, followed by the addition of 12.5 μL of cpds and data sampling for a total 280 seconds. The experiments are terminated by addition of 12.5 μL of a reference agonist (500 nM α,β-methylene-ATP) or buffer, producing a final assay volume of 50 μL followed by data sampling for an additional 280 seconds.
In P2X3 antagonist experiments (human and rat assays) data are analysed as normalised maximal peak fluorescence monitored following agonist addition and calculated as percent of relative fluorescent counts from control agonist. The dose-response antagonist inhibition curves are analyzed in a 4-parameter sigmoidal fit using a non-linear curve-fitting program (XLfit version 5.0.6, ID Business Solutions Limited, Guildford, UK).

[2] = target: T2, hP2X3 (human Purinergic P2X receptors subtype 3), clone B (Homo sapiens, UniProt P56373); test: hP2X3 FLIPR calcium (Fluo-4) antagonist assay, clone B; conditions: Human P2X3 FLIPR Clone B IC50 (nM), RLE cells expressing hP2X3 clone B (NM_002559); agonist 500 nM α,β-methylene-ATP
T2 sequence (P56373 1-397): T1 sequence (P56373 1-397)

Structure (SMILES) | IC50 [1] | IC50 [2]
CC(=O)N1CCN(c2nc3c(c(N(C)C(C)c4ccc5ncccc5c4)n2)CN(C(C)C)C3=O)CC1 (single isomer, unassigned) [Example 260, 2-(4-acetylpiperazin-1-yl)-6-isopropyl-4-(methyl(1-(quinolin-6-yl)ethyl)amino)-5H-pyrrolo[3,4-d]pyrimidin-7(6H)-one] | 1900 nM | 2300 nM
CC(=O)N1CCN(c2nc3c(c(N(C)C(C)c4ccc5ncccc5c4)n2)CN(C(C)C)C3=O)CC1 (single isomer, unassigned) [Example 261, 2-(4-acetylpiperazin-1-yl)-6-isopropyl-4-(methyl(1-(quinolin-6-yl)ethyl)amino)-5H-pyrrolo[3,4-d]pyrimidin-7(6H)-one] | 71.1 nM | 64 nM
CCC(C)N1Cc2c(nc(N3CCN(C(C)=O)CC3)nc2N(CC)Cc2cc3ccccc3cn2)C1=O (single isomer, unassigned) [Example 317, 2-(4-acetylpiperazin-1-yl)-4-[ethyl(isoquinolin-3-ylmethyl)amino]-6-(1-methylpropyl)-5,6-dihydro-7H-pyrrolo[3,4-d]pyrimidin-7-one] | 40 nM | 32 nM
CCC(C)N1Cc2c(nc(N3CCN(C(C)=O)CC3)nc2N(CC)Cc2cc3ccccc3cn2)C1=O (single isomer, unassigned) [Example 318, 2-(4-acetylpiperazin-1-yl)-4-[ethyl(isoquinolin-3-ylmethyl)amino]-6-(1-methylpropyl)-5,6-dihydro-7H-pyrrolo[3,4-d]pyrimidin-7-one] | 43 nM | 41 nM
CCOc1ccc([C@H](CO)Nc2nc(N3CCN(C(C)=O)CC3)nc3c2CN(C(C)C)C3=O)cc1 [Example 180, (R)-2-(4-acetylpiperazin-1-yl)-4-(1-(4-ethoxyphenyl)-2-hydroxyethylamino)-6-isopropyl-5H-pyrrolo[3,4-d]pyrimidin-7(6H)-one] | 7120 nM | 5800 nM
CC(=O)N1CCN(c2nc(N[C@H](C)c3cccc(OC(F)F)c3)c3c(n2)C(=O)N(C(C)C)C3)CC1 [Example 181, (R)-2-(4-acetylpiperazin-1-yl)-4-(1-(3-(difluoromethoxy)phenyl)ethylamino)-6-isopropyl-5H-pyrrolo[3,4-d]pyrimidin-7(6H)-one] | 175 nM | 320 nM
CC(=O)N1CCN(c2nc(N[C@H](C)c3ccc(C(F)(F)F)c(F)c3)c3c(n2)C(=O)N(C(C)C)C3)CC1 [Example 182, (R)-2-(4-acetylpiperazin-1-yl)-4-(1-(3-fluoro-4-(trifluoromethyl)phenyl)ethylamino)-6-isopropyl-5H-pyrrolo[3,4-d]pyrimidin-7(6H)-one] | 271 nM | 240 nM
CC(=O)N1CCN(c2nc(N[C@H](C)c3cc(C(F)(F)F)ccc3F)c3c(n2)C(=O)N(C(C)C)C3)CC1 [Example 183, (R)-2-(4-acetylpiperazin-1-yl)-4-(1-(2-fluoro-5-(trifluoromethyl)phenyl)ethylamino)-6-isopropyl-5H-pyrrolo[3,4-d]pyrimidin-7(6H)-one] | 199 nM | 170 nM
CC(=O)N1CCN(c2nc(N[C@H](C)c3cc(F)cc(C(F)(F)F)c3)c3c(n2)C(=O)N(C(C)C)C3)CC1 [Example 184, (R)-2-(4-acetylpiperazin-1-yl)-4-(1-(3-fluoro-5-(trifluoromethyl)phenyl)ethylamino)-6-isopropyl-5H-pyrrolo[3,4-d]pyrimidin-7(6H)-one] | 101 nM | 87 nM
CCOc1ccc([C@H](Nc2nc(N3CCN(C(C)=O)CC3)nc3c2CN(C(C)C)C3=O)C2CC2)cc1 [Example 185, (R)-2-(4-acetylpiperazin-1-yl)-4-(cyclopropyl(4-ethoxyphenyl)methylamino)-6-isopropyl-5H-pyrrolo[3,4-d]pyrimidin-7(6H)-one] | 79.7 nM | 74 nM
